Laboratory results from patent US20060281807A1, “Quassinoid compositions for the treatment of cancer and other proliferative diseases” (Tapestry Pharmaceuticals, Inc., priority 2005, published 2006).
Values after ≈ are worked out from the molar mass of the structure shown. Values joined by “and” are separate entries in the source; they are usually repeats but may differ in a detail not shown here. Equal entries are not always repeated. Where two headings read alike, the source gives them in different places.

Legend:
[1] = tested on: HCT116 (human colorectal carcinoma); experiment: Disk diffusion assay, zone of inhibition, HCT116; assay type: cell-based; settings: 1 mg/mL
Protocol: (§1) A disk diffusion assay was performed to define the differential cell killing ability of 15-O-(3′-hydroxy-3′-isopropyl-4′-methylpentanoyl)bruceolide. Seven cell types were assayed: L1210 (ATCC CCL-219) (murine leukemia), CCRF-CEM (ATCC CCL-119) (human leukemia), Colon 38 (murine colon adenocarcinoma), HCT116 (ATCC CCL-247) (human colorectal carcinoma), H125 (human lung carcinoma). The murine and human granulocyte/macrophage progenitor cell line (CFU-GM), served as controls.
(§2) Colon 38 cells (about 1 gram) were cut into small fragments in 15 mL of Hank's Balanced Salt Solution (HBSS) over a 100-mesh sieve and gently forced through by the scissors with HBSS constantly perfusing the sieve. The resulting material was then drawn into and out of a 5 mL syringe without a needle to further disperse the cell clumps. The cell solution was diluted and plated in 0.3% agarose in DMEM plus 10% heat-inactivated Bovine Calf Serum (BCS). For plating of all of the cell types (except controls), the 60 mm plates were first prepared with a hard agar bottom layer (0.6% agar in RPMI-1640 plus 15% BCS).
(§3) HCT116 and H125 cells were maintained in cell culture, and were removed from culture by a trypsin-collagenase-DNAase cocktail. The plating efficiencies of each cell type was sufficiently high that 30,000 cells in 3 mL produced the desired number of colonies (i.e., over 10,000 per plate) in 60 mm plates. This soft agar top layer (0.3% with the serum and media as above) plus the titrated tumor cells were poured into the plates and allowed to solidify.
(§4) A 15 μl sample of each compound was dropped onto a 6.5 mm disk (Baxter filter disks). The disks were allowed to dry overnight and then placed close to the edge of a petri dish. Depending upon the cell type, the dishes were incubated for 7 to 10 days, and examined by an inverted stereo-microscope (10×) for measurement of the zone of inhibition. The zone of inhibition was measured from the edge of the filter disk to the beginning of normal-sized colony formation. The diameter of the filter disk, 6.5 mm, was arbitrarily taken as a zone of 200 units. Compounds that were selective for killing solid tumors, as compared to leukemia or normal cells (“solid tumor selective”) were defined as those compounds which produced a difference in zones between solid tumor cells and either normal or leukemia cells of at least 250 units. The results of this analysis are set forth in Table 4, which illustrates the relative diameters of the zones of inhibition by various drugs on the growth of the respective cell types at various drug dilutions.

[2] = tested on: Colon 38 (murine colon adenocarcinoma); experiment: Disk diffusion assay, zone of inhibition, Colon 38; zone differentials, potency and product; assay type: cell-based; design: key to C38ΔL1210 / C38ΔCFU: difference of zone of inhibition values, in zone units; settings: for zone of inhibition, Colon 38: 1 mg/mL; for Sum: C38ΔL1210 plus C38ΔCFU; for C38ΔL1210: Colon38 vs L1210 leukemia; for Product: potency multiplied by zone differentials
Protocol: as §1, §2, §4
The degree of differential sensitivity of several inventive compounds was compared with respect to the Colon38 cell line, the L1210 cell line, and the control CFU-GM cell lines. The degree of differential sensitivity was estimated by calculating the difference between the zone of inhibition values, as determined in Example 6, for the solid tumor compared to either the leukemia (C38ΔL1210) or normal cell (C38ΔCFU).
The potency of each of several inventive compounds was determined by identifying the dilution required to yield an average zone of inhibition of 500 units for the Colon38 cell type. Then the potency and the zone differentials were multiplied to define a “product” (see Table 5), which can be used to rank the compounds tested for their potential for further development; the greater the product value the greater the probability of useful chemotherapeutic utility.

[3] = tested on: H125 (human lung carcinoma); experiment: Disk diffusion assay, zone of inhibition, H125; assay type: cell-based; settings: 1 mg/mL
Protocol: as §1, §2, §3, §4

murine CFU-GM = experiment: Disk diffusion assay, zone of inhibition, murine CFU-GM; assay type: cell-based; settings: 1 mg/mL
Protocol: as §1
(§5) For CFU-GM cells, the femoral marrow of BD2F1 mice was flushed with MEM alpha (2 mL per femur). The cells were passed through an 18 gauge needle twice and the monodispersed suspension was counted. A total of 1.5×10^6 cells were plated in 3 mL of 0.3% agar with the addition of 10% L cell conditioned media, which provided colony stimulating factor, in MEM-alpha plus 10% BCS. For human CFU-GM, the cells were obtained from Poietic Technologies, Inc. (Gaithersburg, Md.) and washed twice with PBS before being titered and added to the agar mixture. The same cell number, culture conditions, and conditioning factors used with respect to the murine CFU-GM cells were used with the human cells, except that the cultures were assessed after 10 days of incubation.
as §4

human CFU-GM = assay type: cell-based; settings: 1 mg/mL
Protocol: as §1, §5, §4

[4] = tested on: CCRF-CEM (human leukemia); experiment: Disk diffusion assay, zone of inhibition, CCRF-CEM; assay type: cell-based; settings: 1 mg/mL
Protocol: as §1, §2, §4

L1210 (murine leukemia) = experiment: Disk diffusion assay, zone of inhibition, L1210; assay type: cell-based; settings: 1 mg/mL
Protocol: as §1, §2, §4

HCT-116 cells [5] = experiment: Clonogenic assay, HCT-116; assay type: cell-based, human; settings: colonies at 7 days
Protocol: A clonogenic assay was performed using HCT-116 cells. Specifically, HCT-116 cells were seeded at 200 to 20,000 cells in 60 mm dishes. […] At either 2 hours or 24 hours following drug administration, the drug-containing media was removed, and fresh media without drug was added. In addition, one group of cells was subjected to continuous drug exposure for the entire incubation period. The dishes were incubated for 7 days (at 37° C. and 5% CO2), media was removed, and the colonies were stained with methylene blue. Colonies containing 50 cells or more were counted. The results were normalized to an untreated control. Plating efficiency for the untreated cells was about 90%. Repeat experiments also were carried out to define the cell survival range between 1 (100%) and 10^−3 (0.1%) survival. A survival rate of 10^−1 was chosen as the minimal level that would be required in vivo to achieve therapeutic efficacy against HCT-116 cells in tumor-bearing mice. The clonogenic dose response to 15-O-(3′-hydroxy-3′-isopropyl-4′-methylpentanoyl)bruceolide is illustrated in FIG. 4. The clonogenic dose response to 15-(3-isopropyl-4-methyl-2-pentenoyl)-bruceolide is illustrated in FIG. 5.

HCT-116 cells [6] = experiment: HCT-116 cytotoxicity, viable cell count by trypan blue; assay type: cell-based, human
[7] = Maximum tolerated dose in mice; settings: intravenous, first stage, one mouse per dose
Protocol: Formulations containing 15-O-(3′-hydroxy-3′-isopropyl-4′-methylpentanoyl)bruceolide, 15-(3-isopropyl-4-methyl-2-pentenoyl)-bruceolide, and, for comparative purposes, bruceantin, or peninsularinone were prepared by solubilizing each compound in up to 100 mg/mL of ethanol. These solutions were diluted 1:1 with a stabilizer (Cremophor/propylene glycol). The solutions were then diluted in saline (1:10 minimum).
The maximum tolerated dose (MTD) was determined by a two-stage experiment. In the first stage, between 1 and 10 mg/mL of the formulation was prepared as described above. Next, 0.25 mL of the formulation was injected intravenously into one 20 gram mouse (0.75 mg/mouse). If the animal died within 30 days of injection, a series of subsequent 2-fold dilutions were administered to individual mice until an MTD was defined. […] The second stage of the study involved increasing the number of mice per dose to four, and retesting four dilutions that bracket the MTD from the individual mouse study. The four dilutions were the MTD, a dosage twice the MTD, a dosage ½ the MTD, and a dosage ¼ the MTD.

[8] = no dilution, 15 μl on disk, 6.5 mm = 200 units
[9] = difference between zone of inhibition values
[10] = HCT-116, 3 days with compound, viable cells, by interpolation

CC(=O)O[C@H]1C(=O)[C@@]2(C)[C@H]([C@H](OC(=O)c3ccccc3)[C@]3(O)C[C@H](OC(=O)[C@H](O)[C@@H](NC(=O)c4ccccc4)c4ccccc4)C(C)=C1C3(C)C)[C@]1(OC(C)=O)CO[C@@H]1C[C@@H]2O [Taxol, taxol]
zone of inhibition, H-116 ([1]; dilution 1/4): 750 units | zone of inhibition, H-116 ([1]; dilution 1/16): 650 units | zone of inhibition, H-116 ([1]; dilution 1/64): 550 units | zone of inhibition, H-116 ([1]; dilution 1/256): 400 units | zone of inhibition, H-116 [1, 8]: 850 units | zone of inhibition, Colon 38 ([2]; dilution 1/4): 900 units | zone of inhibition, Colon 38 ([2]; dilution 1/16): 750 units | zone of inhibition, Colon 38 ([2]; dilution 1/64): 600 units | zone of inhibition, Colon 38 ([2]; dilution 1/256): 450 units | zone of inhibition, Colon 38 [2, 8]: >1000 units | Sum [2]: 700 | C38ΔL1210 [2, 9]: 400 | C38ΔCFU ([2]; difference between zone of inhibition values, Colon38 vs normal cell CFU-GM): 300 | Product [2]: 3500 | zone of inhibition, H-125 M ([3]; dilution 1/4): 850 units | zone of inhibition, H-125 M ([3]; dilution 1/16): 750 units | zone of inhibition, H-125 M ([3]; dilution 1/64): 650 units | zone of inhibition, H-125 M ([3]; dilution 1/256): 500 units | zone of inhibition, H-125 M [3, 8]: >1000 units | zone of inhibition, murine CFU-GM (murine CFU-GM; dilution 1/4): 600 units | zone of inhibition, murine CFU-GM (murine CFU-GM; dilution 1/16): 550 units | zone of inhibition, murine CFU-GM (murine CFU-GM; dilution 1/64): 400 units | zone of inhibition, murine CFU-GM (murine CFU-GM; dilution 1/256): 150 units | zone of inhibition, murine CFU-GM (murine CFU-GM; [8]): 650 units | zone of inhibition, human CFU-GM (human CFU-GM; dilution 1/4): >1000 units | zone of inhibition, human CFU-GM (human CFU-GM; dilution 1/16): 800 units | zone of inhibition, human CFU-GM (human CFU-GM; dilution 1/64): 750 units | zone of inhibition, human CFU-GM (human CFU-GM; dilution 1/256): 550 units | zone of inhibition, human CFU-GM (human CFU-GM; [8]): >1000 units | zone of inhibition, CEM ([4]; dilution 1/4): >1000 units | zone of inhibition, CEM ([4]; dilution 1/16): 900 units | zone of inhibition, CEM ([4]; dilution 1/64): 750 units | zone of inhibition, CEM ([4]; dilution 1/256): 550 units | zone of inhibition, CEM [4, 8]: >1000 units | zone of inhibition, L1210 (L1210 (murine leukemia); dilution 1/4): 550 units | zone of inhibition, L1210 (L1210 (murine leukemia); dilution 1/16): 500 units | zone of inhibition, L1210 (L1210 (murine leukemia); dilution 1/64): 350 units | zone of inhibition, L1210 (L1210 (murine leukemia); dilution 1/256): 50 units | zone of inhibition, L1210 (L1210 (murine leukemia); [8]): 650 units

CC[C@@](O)(CC(=O)O[C@@H]1C(=O)O[C@@H]2C[C@@H]3C(C)=CC(=O)[C@H](O)[C@]3(C)[C@H]3[C@]4(O)OC[C@]32[C@@H]1[C@@H](C)[C@H]4O)C(C)C [Peninsularinone, peninsularinone]
Concentration Required for 10^−1 Survival Fraction (HCT-116 cells [5]; HCT-116, 2 Hour Exposure): >10 μg/mL | Concentration Required for 10^−1 Survival Fraction (HCT-116 cells [5]; HCT-116, 24 Hour Exposure): 1 × 10^−2 μg/mL | Concentration Required for 10^−1 Survival Fraction (HCT-116 cells [5]; HCT-116, Continuous Exposure): 1 × 10^−3 μg/mL | IC90/IC50 (HCT-116 cells [6]; HCT-116): 13 | IC50 (HCT-116 cells [6]; [10]): 1.2 ng/mL (≈ 0.00224 µM) | IC90 (HCT-116 cells [6]; [10]): 15 ng/mL (≈ 0.028 µM) | zone of inhibition, H-116 ([1]; dilution 1/10): >1000 units | zone of inhibition, H-116 ([1]; dilution 1/100): 950 units | zone of inhibition, H-116 ([1]; dilution 1/1000): 450 units | zone of inhibition, H-116 [1, 8]: >1000 units | zone of inhibition, Colon 38 ([2]; dilution 1/10): >1000 units | zone of inhibition, Colon 38 ([2]; dilution 1/100): >1000 units | zone of inhibition, Colon 38 ([2]; dilution 1/1000): 800 units and 550 units | zone of inhibition, Colon 38 ([2]; dilution 1/4000): 250 units | zone of inhibition, Colon 38 ([2]; dilution 1/10000): 200 units | zone of inhibition, Colon 38 [2, 8]: >1000 units | Sum [2]: 1100 and 550 | C38ΔL1210 [2, 9]: 450 and 250 | Product [2]: 6600 and 3575 | zone of inhibition, H-125 M ([3]; dilution 1/10): >1000 units | zone of inhibition, H-125 M ([3]; dilution 1/100): 1000 units | zone of inhibition, H-125 M ([3]; dilution 1/1000): 400 units | zone of inhibition, H-125 M [3, 8]: >1000 units | zone of inhibition, murine CFU-GM (murine CFU-GM; dilution 1/10): >1000 units | zone of inhibition, murine CFU-GM (murine CFU-GM; dilution 1/100): 450 units | zone of inhibition, murine CFU-GM (murine CFU-GM; dilution 1/4000): 0 units | zone of inhibition, murine CFU-GM (murine CFU-GM; dilution 1/10000): 0 units | zone of inhibition, murine CFU-GM (murine CFU-GM; [8]): >1000 units | zone of inhibition, CEM ([4]; dilution 1/10): >1000 units | zone of inhibition, CEM ([4]; dilution 1/100): 800 units | zone of inhibition, CEM ([4]; dilution 1/1000): 500 units | zone of inhibition, CEM [4, 8]: >1000 units | zone of inhibition, L1210 (L1210 (murine leukemia); dilution 1/10): >1000 units | zone of inhibition, L1210 (L1210 (murine leukemia); dilution 1/100): 700 units | zone of inhibition, L1210 (L1210 (murine leukemia); dilution 1/1000): 300 units and 200 units | zone of inhibition, L1210 (L1210 (murine leukemia); dilution 1/4000): 50 units | zone of inhibition, L1210 (L1210 (murine leukemia); dilution 1/10000): 100 units | zone of inhibition, L1210 (L1210 (murine leukemia); [8]): >1000 units | maximum tolerated dose, Dose - 1 Mouse [7]: 0.01 mg/mouse and 0.45 mg/kg
